Where two headings read alike, the source gives them in different places.
Experiments:
Format in all cases: cell-based
[1] = system: PC9 DCT (Del19+T790M+C797S) cells; assay: Cell viability assay, PC9 cells with EGFR triple mutation; settings: Homo sapiens, PC-9; Table 9; PC9 (Del + T790M + C797S), EGFR triple mutations; read-out: IC50 (half inhibitory concentration)
Text: Construction of EGFR triple mutant cell line PC9 DCT (Dell9+T790M+C797S): The cDNA expressing human EGFR was cloned into pLVX vector, and exon 19 deletion mutation (746-750) and T790M mutation were introduced by point mutation and C797S mutation. Transferred into PC9 cells by lentiviral packaging. Cells stably expressing EGFR triple mutations were obtained by fluorescence screening.
The cDNA sequence expressing human EGFR was cloned into a pLVX vector (GFP^+), and then introduce the EGFR exon 19 deletion (746-750), exon 20 T790M and C797S mutations by were generated by site-directed mutagenesis. The PC9 cells were infected with lentivirus containing the indicated EGFR mutations, and the cells stably expressing EGFR triple mutation were obtained by fluorescence screening.
All of the half inhibitory concentrations (IC50) of these compounds of the present invention were determined with WST reagent from Fuyuan Biotec Company. The specific experiment procedures are as follows: Cancer cells were planted in 96-well-plate at the density of 3 000 cells per well with 100 μL RPMI1640 completed culture medium. In the next day, compounds with indicated concentrations were added to the cells, DMSO was used as the negative control and the EGFR TKIs were used to treat cells as the positive groups. After 72 hours drug treatment, cell viability was measured by using the WST reagent following the instructions. The growth inhibition curve of the compounds on cells were plotted by Prism GraphPad, and the compounds IC50 calculated from it.
The cell viability assays were taken to determine the anti-tumor activity of these indicated compounds in PC9 cells, which overexpressed Exon 19del+T790M+C797S triple mutant EGFR.

[2] = system: HCC827 cells (EGFR Exon19 del, non-small cell lung cancer cells); assay: Cell viability assay (WST/CCK8), HCC827 cells; settings: Homo sapiens, HCC827, 72 h, HCC827 (Exon19 Del), 72 hours, read-out: IC50 (half inhibitory concentration)
In short: (§1)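 Cells seeded at 3 000/well in RPMI1640 complete medium, dosed next day with compounds (top 10 μM, 3-fold, 10 points) for 72 h. Viability read with WST (CCK8) reagent; DMSO as negative control, EGFR TKIs as positive controls; IC50 determined.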

[3] = system: BT474 cells (HER2 positive breast cancer cells); assay: Cell viability assay (CCK8), BT474 cells; settings: Homo sapiens, BT-474, Table 10, BT474, 72 hours, read-out: IC50 (half inhibitory concentration)
In short: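 HER2-overexpressing BT474 cells in RPMI1640 were exposed to compounds for 72 hours over 10 concentrations (3-fold dilution, top 10 μM). Viability was measured with CCK8 reagent against a DMSO control, and IC50 was taken from growth inhibition curves.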

[4] = system: H1975 (EGFR T790M+L858R mutation, non-small cell lung cancer cell line); assay: Cell viability assay (WST/CCK8), H1975 cells; settings: Homo sapiens, NCI-H1975, H1975 (L858R + T790M), read-out: IC50 (half inhibitory concentration)
In short: (§2)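 Cells seeded at 3 000 per well in RPMI1640 complete medium, dosed next day with compounds at indicated concentrations (DMSO negative control, EGFR TKIs as positive control).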

[5] = system: PC9BracA1 (EGFR Exon 19 del+T790M, non-small cell lung cancer cells); assay: Cell viability assay (WST/CCK8), PC9Brac1 cells; settings: read-out: IC50 (half inhibitory concentration)
In short: as §2

[6] = system: PC9 cells (EGFR Exon 19 del, non-small cell lung cancer cells); assay: Cell viability assay (WST/CCK8), PC9 cells; settings: Homo sapiens, PC-9, PC9 (Exon19 Del), 72 hours, read-out: IC50 (half inhibitory concentration)
In short: as §1

[7] = Table 3, poziotinib-based compounds, WST (CCK8)
[8] = Table 7, canertinib-based compounds
[9] = Table 7, canertinib-based compounds, PC9Brca1 (Ex19del + T790M)
[10] = Table 6, canertinib-based compounds, WST

Structure (SMILES)	IC50 [1] [nM]	IC50 [2, 7] [nM]	IC50 [3] [nM]	IC50 [4, 8] [nM]	IC50 [5, 9] [nM]	IC50 [2, 10] [nM]	IC50 [6, 10] [nM]	other results
COc1cc2ncnc(Nc3ccc(Cl)c(Cl)c3F)c2cc1OC1CCN(C(=O)CCCCCNc2cccc3c2C(=O)N(C2CCC(=O)NC2=O)C3=O)CC1 (stereo not shown) [SIAIS219181, 4-((6-(4-((4-((3,4-dichloro-2-fluorophenyl)amino)-7-methoxyquinazolin-6-yl)oxy)piperidin-1-yl)-6-oxohexyl)amino)-2-(2,6-dioxopiperidin-3-yl)isoindoline-1,3-dione]	3.8	23.1						
COc1cc2ncnc(Nc3ccc(Cl)c(Cl)c3F)c2cc1OC1CCN(C(=O)CCCCCCSc2cccc3c2CN(C2CCC(=O)NC2=O)C3=O)CC1 (stereo not shown) [SIAIS219169, 3-(4-((7-(4-((4-((3,4-dichloro-2-fluorophenyl)amino)-7-methoxyquinazolin-6-yl)oxy)piperidin-1-yl)-7-oxoheptyl)thio)-1-oxoisoindolin-2-yl)piperidine-2,6-dione]	3.6	38						
COc1cc2ncnc(Nc3ccc(Cl)c(Cl)c3F)c2cc1OC1CCN(C(=O)CCCCCSc2cccc3c2CN(C2CCC(=O)NC2=O)C3=O)CC1 (stereo not shown) [SIAIS219168, 3-(4-((6-(4-((4-((3,4-dichloro-2-fluorophenyl)amino)-7-methoxyquinazolin-6-yl)oxy)piperidin-1-yl)-6-oxohexyl)thio)-1-oxoisoindolin-2-yl)piperidine-2,6-dione]	2.9	40						
C=CC(=O)Nc1cc2c(Nc3ccc(F)c(Cl)c3)ncnc2cc1OCCCN1CCN(C(=O)CCCCCSc2cccc3c2CN(C2CCC(=O)NC2=O)C3=O)CC1 (stereo not shown) [SIAIS262123, N-(4-((3-chloro-4-fluorophenyl)amino)-7-(3-(4-(6-((2-(2,6-dioxopiperidin-3-yl)-1-oxoisoindolin-4-yl)thio)hexanoyl)piperazin-1-yl)propoxy)quinazolin-6-yl)acrylamide]			48.9	143	380	2	8.3	
C=CC(=O)Nc1cc2c(Nc3ccc(F)c(Cl)c3)ncnc2cc1OCCCN1CCN(C(=O)CCCCSc2cccc3c2CN(C2CCC(=O)NC2=O)C3=O)CC1 (stereo not shown) [SIAIS262122, N-(4-((3-chloro-4-fluorophenyl)amino)-7-(3-(4-(5-((2-(2,6-dioxopiperidin-3-yl)-1-oxoisoindolin-4-yl)thio)pentanoyl)piperazin-1-yl)propoxy)quinazolin-6-yl)acrylamide]			48	97	474	4.1	23.1	
COc1cc2ncnc(Nc3ccc(Cl)c(Cl)c3F)c2cc1OC1CCN(C(=O)CSc2cccc3c2CN(C2CCC(=O)NC2=O)C3=O)CC1 (stereo not shown) [SIAIS219164, 3-(4-((2-(4-((4-((3,4-dichloro-2-fluorophenyl)amino)-7-methoxyquinazolin-6-yl)oxy)piperidin-1-yl)-2-oxoethyl)thio)-1-oxoisoindolin-2-yl)piperidine-2,6-dione]	4.8	33						
COc1cc2ncnc(Nc3ccc(F)c(Cl)c3)c2cc1NC(=O)/C=C/CN1CCC(NC(=O)CCCCCCSc2cccc3c2CN(C2CCC(=O)NC2=O)C3=O)CC1 (stereo not shown) [SIAIS262115, (E)-N-(1-(4-((4-((3-chloro-4-fluorophenyl)amino)-7-methoxyquinazolin-6-yl)amino)-4-oxobut-2-en-1-yl)piperidin-4-yl)-7-((2-(2,6-dioxopiperidin-3-yl)-1-oxoisoindolin-4-yl)thio)heptanamide]			33.7					IC50 ([4]; 72 hours, WST): 550 nM; IC50 ([5]; PC9Brac1 (Ex19del + T790M), 72 hours, WST): 488 nM; IC50 ([2]; WST (CCK8)): 4 nM; IC50 ([6]; WST (CCK8)): 7.2 nM
C=CC(=O)Nc1cc2c(Nc3ccc(F)c(Cl)c3)ncnc2cc1OCCCN1CCC(N2CCN(C(=O)CCCCCSc3cccc4c3CN(C3CCC(=O)NC3=O)C4=O)CC2)CC1 (stereo not shown) [SIAIS262176, N-(4-((3-chloro-4-fluorophenyl)amino)-7-(3-(4-(4-(6-((2-(2,6-dioxopiperidin-3-yl)-1-oxoisoindolin-4-yl)thio)hexanoyl)piperazin-1-yl)piperidin-1-yl)propoxy)quinazolin-6-yl)acrylamide]			1.4	67	472	3.3	15.8	
COc1cc2ncnc(Nc3ccc(Cl)c(Cl)c3F)c2cc1OC1CCN(C(=O)CCCCSc2cccc3c2C(=O)N(C2CCC(=O)NC2=O)C3=O)CC1 (stereo not shown) [SIAIS249017, 4-((5-(4-((4-((3,4-dichloro-2-fluorophenyl)amino)-7-methoxyquinazolin-6-yl)oxy)piperidin-1-yl)-5-oxopentyl)thio)-2-(2,6-dioxopiperidin-3-yl)isoindoline-1,3-dione]	2.2	23						
C=CC(=O)Nc1cc2c(Nc3ccc(F)c(Cl)c3)ncnc2cc1OCCCN1CCC(N2CCN(C(=O)CCCCCCNc3cccc4c3C(=O)N(C3CCC(=O)NC3=O)C4=O)CC2)CC1 (stereo not shown) [SIAIS262179, N-(4-((3-chloro-4-fluorophenyl)amino)-7-(3-(4-(4-(7-((2-(2,6-dioxopiperidin-3-yl)-1,3-dioxoisoindolin-4-yl)amino)heptanoyl)piperazin-1-yl)piperidin-1-yl)propoxy)quinazolin-6-yl)acrylamide]			14.6	43	181	2.5	10.3	
C=CC(=O)Nc1cc2c(Nc3ccc(F)c(Cl)c3)ncnc2cc1OCCCN1CCN(CCCCC#CC2c3ccccc3C(=O)N2C2CCC(=O)NC2=O)CC1 (stereo not shown) [SIAIS262131, N-(4-((3-chloro-4-fluorophenyl)amino)-7-(3-(4-(6-(2-(2,6-dioxopiperidin-3-yl)-3-oxoisoindolin-1-yl)hex-5-yn-1-yl)piperazin-1-yl)propoxy)quinazolin-6-yl)acrylamide]			5.1	45	216	1.2	29.3	
COc1cc2ncnc(Nc3ccc(Cl)c(Cl)c3F)c2cc1OC1CCN(C(=O)CSc2cccc3c2C(=O)N(C2CCC(=O)NC2=O)C3=O)CC1 (stereo not shown) [SIAIS249014, 4-((2-(4-((4-((3,4-dichloro-2-fluorophenyl)amino)-7-methoxyquinazolin-6-yl)oxy)piperidin-1-yl)-2-oxoethyl)thio)-2-(2,6-dioxopiperidin-3-yl)isoindoline-1,3-dione]	1.8	51						
COc1cc2ncnc(Nc3ccc(Cl)c(Cl)c3F)c2cc1OC1CCN(C(=O)CCCNc2cccc3c2C(=O)N(C2CCC(=O)NC2=O)C3=O)CC1 (stereo not shown) [SIAIS219179, 4-((4-(4-((4-((3,4-dichloro-2-fluorophenyl)amino)-7-methoxyquinazolin-6-yl)oxy)piperidin-1-yl)-4-oxobutyl)amino)-2-(2,6-dioxopiperidin-3-yl)isoindoline-1,3-dione]	3.9	20.2						
C=CC(=O)Nc1cc2c(Nc3ccc(F)c(Cl)c3)ncnc2cc1OCCCN1CCC(N2CCN(C(=O)CNc3cccc4c3C(=O)N(C3CCC(=O)NC3=O)C4=O)CC2)CC1 (stereo not shown) [SIAIS262177, N-(4-((3-chloro-4-fluorophenyl)amino)-7-(3-(4-(4-(2-((2-(2,6-dioxopiperidin-3-yl)-1,3-dioxoisoindolin-4-yl)amino)acetyl)piperazin-1-yl)piperidin-1-yl)propoxy)quinazolin-6-yl)acrylamide]			8.2	654	209	5.7	3.4	

From patent publication US12564638B2 (SHANGHAITECH UNIVERSITY, priority 2019, dated 2026)
